The test system of assay [1] is K. pneumoniae UMM. The assay can be described thus: microbe, parasite or virus in culture. It is filed as cell-based. The note with it: Klebsiella pneumoniae; K. pneumoniae UMM producing SHV-5 and KPC-2; read-out: MIC K. pneumoniae UMM. The procedure: (§1) To determine the ability of test compounds to potentiate the inhibition of the growth of bacterial strains, classic cell based broth microdilution minimum inhibitory concentration (MIC) assays were employed. MIC assays are performed according to CLSI methods except where otherwise noted (CLSI, 2011 and CLSI, 2009). The reference type strain E. coli ATCC 25922, the wild-type parent strain E. coli AG100, the hyper-permeable E. coli 901C and E. coli D22 and the E. coli AG100A strain lacking the acrAB efflux pump encoding genes were used to determine the ability of the PBP inhibitors to penetrate the outer membrane of gram-negative bacteria and inhibit bacterial growth. […] The P. aeruginosa PAO1, P. aeruginosa ATCC 27853 and A. baumannii ATCC 19606, along with the hyper-permeable P. aeruginosa ATCC 35151 and an engineered efflux pump-compromised strain of P. aeruginosa (ΔmexAB-oprM) were used to determine the ability of PBP inhibitors to penetrate the outer membrane of P. aeruginosa and A. baumannii and assess antibacterial activity against these important gram-negative organisms.
(§2) Briefly, cryo-preserved bacterial cultures of challenge strains are streaked for isolation on appropriate agar medium, in this case Mueller Hinton II agar. Following incubation to allow growth of the colonies, plates are sealed with parafilm and stored refrigerated for up to two weeks. For preparation of assay inoculum and to ensure low variability, at least 5 colonies are picked from the agar plates with an inoculating loop and aseptically transferred to a culture tube containing 3 mL of Mueller-Hinton Broth (supplemented with divalent cations to required levels based on Manufacturers' certification). The broth culture is grown for 3-5 hours at 37° C. with shaking at 200 rpm. Meanwhile, 2-fold serial dilutions of test compounds are conducted in a 96 well plate with a final volume of 75 μL per well at 2-fold the final desired concentration. After the dilution plates are set up the growing cultures are then diluted in a cuvette containing MH II broth and the optical density is measured at 600 nm. The Inoculum is diluted such that 75 μL of this culture in Mueller-Hinton Broth results in a starting bacterial concentration of 5×10^5 CFU/mL when added to the dilution plates. The plates are incubated for 16-20 hours at 37° C. The MIC values are read visually as the lowest concentration well with no bacterial growth.

Assay [2] concerns K. pneumoniae SI-117. The assay can be described thus: microbe, parasite or virus in culture. The assay is classed as cell-based. Particulars: Klebsiella pneumoniae, SI117, read-out: MIC K. pneumoniae SI-117. As for the experimental part:
as §1, §2

Assay [3] has as its system E. coli 901C. The assay can be described thus: microbe, parasite or virus in culture. The assay is classed as cell-based. The note with it: Escherichia coli; hyper-permeable E. coli 901C, broth microdilution; read-out: MIC E. coli 901C. As for the experimental part:
as §1, §2
A general note: Dilution methods test growth across graded concentrations, often in twofold steps.

The test system of assay [4] is E. coli AG100A. Put plainly: microbe, parasite or virus in culture. The assay is classed as cell-based. Particulars: Escherichia coli, read-out: MIC E. coli AG100A. The procedure: as §1, §2
The subject of assay [5] is E. coli D22. Put plainly: microbe, parasite or virus in culture. The note with it: Escherichia coli; hyper-permeable E. coli D22, broth microdilution; read-out: MIC E. coli D22. It is filed as cell-based. As for the experimental part:
as §1, §2

Assay [6] concerns E. coli AG100. The assay can be described thus: Broth microdilution MIC, E. coli AG100 (wild-type parent). The assay is classed as cell-based. The note with it: Escherichia coli; wild-type parent E. coli AG100, broth microdilution; read-out: MIC E. coli AG100. The procedure:
To determine the ability of test compounds to potentiate the inhibition of the growth of bacterial strains, classic cell based broth microdilution minimum inhibitory concentration (MIC) assays were employed.
as §2

Assay [7] relates to K. pneumoniae 848844. Put plainly: microbe, parasite or virus in culture. The assay is classed as cell-based, Klebsiella pneumoniae. The note with it: Klebsiella pneumoniae; K. pneumoniae 848844 producing SHV-11 and KPC-2; read-out: MIC K. pneumoniae 848844. As for the experimental part:
as §1, §2

Assay [8] deals with E. coli ATCC 25922. Put plainly: Broth microdilution MIC, E. coli ATCC 25922. It is filed as cell-based. Particulars: Escherichia coli. As for the experimental part:
as §1, §2

Assay [9] addresses E. coli PBP3 (Escherichia coli (strain K12), UniProt P0AD68). The assay can be described thus: E. coli PBP3 Bocillin-FL fluorescence polarization competition binding assay. The source says: To determine the ability of boronic acid-based test PBP inhibitors to bind Penicillin Binding Proteins (PBPs), Bocillin-FL (fluorescently-labeled penicillin V; ThermoFisher Scientific) was used in a fluorescence polarization (FP) competition binding assay to assess inhibitor binding to PBP2, PBP3 or PBP4 from Escherichia coli. PBPs were cloned and purified as described previously (King, D. T, et al., ACS Infectious Diseases 2015, 1, 175-184). To establish assay conditions for competition binding, an enzyme titration/saturation binding experiment was initially performed. Bocillin-FL was prepared at 0.2 μM in a buffer comprised of 50 mM Hepes (pH 8.0), 300 mM NaCl and 5% (v/v) glycerol. Saturation binding was performed by mixing 40 μl of PBP solutions ranging in concentrations from 0-12 μM with 40 μl of the 0.2 μM Bocillin-FL solution, in individual wells of a black 384-well microplate. FP was measured immediately upon mixing (Excitation, 490 nm; Emission, 520 nm; g-factor, 0.96), using a Cytation3 (BioTek) microplate reader and measured continuously for up to 120 minutes. […] Assays (80 μl final volume) were performed with PBPs at a final concentration of 1.5 μM, Bocillin-FL at 0.1 μM and beta-lactam concentrations that ranged from 0-1000 μM. […] Bocillin-FL was added and the FP immediately measured for 60 minutes (90 minutes for PBP2). The beta-lactam potency was reported as the concentration of beta-lactam required to reduce binding of Bocillin-FL by […] (EC50). […] Binding assays for boronic acid PBP inhibitors were performed in an identical fashion.
In general terms: Fluorescence polarisation rises when a labelled molecule tumbles more slowly, as on binding a larger partner.

The mark [10] stands for this setting: ATCC25922, E. coli ATCC 25922, broth microdilution, read-out: MIC E. coli 25922.
Where [11] appears, read: fluorescence polarization competition binding with Bocillin-FL, read-out: E. coli K12 PBP3 Potency.

This note sets out measurements from US12173018B2, “Penicillin-binding protein inhibitors” (priority 2018, dated 2024).

Like-named read-outs stand apart in the source and are kept apart here.

Sequence of E. coli PBP3 (P0AD68 whole entry): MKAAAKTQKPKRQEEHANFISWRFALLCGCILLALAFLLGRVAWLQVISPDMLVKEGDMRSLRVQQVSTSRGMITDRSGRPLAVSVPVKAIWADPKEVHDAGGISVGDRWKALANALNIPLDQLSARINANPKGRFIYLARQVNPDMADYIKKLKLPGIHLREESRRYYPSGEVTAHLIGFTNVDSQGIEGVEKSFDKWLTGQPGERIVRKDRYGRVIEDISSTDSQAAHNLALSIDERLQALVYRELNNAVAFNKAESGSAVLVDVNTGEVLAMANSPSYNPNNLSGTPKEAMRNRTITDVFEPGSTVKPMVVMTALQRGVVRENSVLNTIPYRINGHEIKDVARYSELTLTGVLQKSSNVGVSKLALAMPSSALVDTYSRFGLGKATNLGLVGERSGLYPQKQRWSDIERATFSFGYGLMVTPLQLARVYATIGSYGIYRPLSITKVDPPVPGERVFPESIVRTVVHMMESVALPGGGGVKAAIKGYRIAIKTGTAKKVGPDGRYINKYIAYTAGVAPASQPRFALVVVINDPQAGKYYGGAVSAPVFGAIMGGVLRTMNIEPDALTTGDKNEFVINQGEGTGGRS

As for `CCN1CCN(C(=O)N[C@H](C(=O)N[C@H]2Cc3cccc(C(=O)O)c3OB2O)c2ccc(O)c(F)c2)C(=O)C1=O` [Example 155, (R)-3-((S)-2-(4-ethyl-2,3-dioxopiperazine-1-carboxamido)-2-(3-fluoro-4-hydroxyphenyl)acetamido)-2-hydroxy-3,4-dihydro-2H-benzo[e][1,2]oxaborinine-8-carboxylic acid], the MIC in assay [1] was greater than 128 µg/mL; in [2], greater than 128 µg/mL; in [3] it was 0.5 to 1 µg/mL; in assay [4] it was 8 to 16 µg/mL; in assay [5], 8 to 16 µg/mL; in [6], greater than 128 µg/mL. Further, the MIC in [7] and in assay [8] (setting [10]) was greater than 128 µg/mL in each case. In assay [9], the EC50 lay within 30 to 500 µM.

In the case of `CCN1CCN(C(=O)NC(C(=O)N[C@H]2Cc3cccc(C(=O)O)c3OB2O)c2ncccc2F)C(=O)C1=O` (stereo partly drawn) [Example 162, (3R)-3-(2-(4-ethyl-2,3-dioxopiperazine-1-carboxamido)-2-(3-fluoropyridin-2-yl)acetamido)-2-hydroxy-3,4-dihydro-2H-benzo[e][1,2]oxaborinine-8-carboxylic acid], the MIC in assay [1] lay within 32 to 64 µg/mL; in [2], 32 to 64 µg/mL; in [3], 0.5 to 1 µg/mL; in assay [4], 2 to 4 µg/mL; in [5], 8 to 16 µg/mL; in assay [6], 32 to 64 µg/mL. Further, the MIC in [7] is greater than 128 µg/mL; in assay [8] (setting [10]), 32 to 64 µg/mL. In [9], this compound had an EC50 of 30 to 500 µM.

As for `CCN1CCN(C(=O)N[C@H](C(=O)N[C@H]2Cc3cccc(C(=O)O)c3OB2O)c2ccc(S(N)(=O)=O)c(O)c2)C(=O)C1=O` [Example 166, (R)-3-((S)-2-(4-ethyl-2,3-dioxopiperazine-1-carboxamido)-2-(3-hydroxy-4-sulfamoylphenyl)acetamido)-2-hydroxy-3,4-dihydro-2H-benzo[e][1,2]oxaborinine-8-carboxylic acid], the MIC was 32 to 64 µg/mL in [1]; greater than 128 µg/mL in assay [2]; less than 0.25 µg/mL in assay [3]; 2 to 4 µg/mL in assay [4]; 2 to 4 µg/mL in assay [5]; 32 to 64 µg/mL in assay [6]. The MIC in assay [7] is greater than 128 µg/mL; in [8] (setting [10]) it was 32 to 64 µg/mL. In assay [9], this compound gave an EC50 of 30 to 500 µM.

Take `CCN1CCN(C(=O)N[C@@H](C(=O)N[C@H]2Cc3cccc(C(=O)O)c3OB2O)c2ccc(S(N)(=O)=O)c(O)c2)C(=O)C1=O` [Example 167, (R)-3-((R)-2-(4-ethyl-2,3-dioxopiperazine-1-carboxamido)-2-(3-hydroxy-4-sulfamoylphenyl)acetamido)-2-hydroxy-3,4-dihydro-2H-benzo[e][1,2]oxaborinine-8-carboxylic acid]: the MIC in assay [1] is 32 to 64 µg/mL; in assay [2], greater than 128 µg/mL; in assay [3], less than 0.25 µg/mL; in [4] it was 2 to 4 µg/mL; in assay [5], 2 to 4 µg/mL; in [6] it was 32 to 64 µg/mL. The figures for the MIC in assay [7] and in assay [8] (setting [10]) were greater than 128 µg/mL and 32 to 64 µg/mL, respectively. For the same compound, in [9] (setting [11]), the EC50 was less than 30 µM.

As to `CCN1CCN(C(=O)N[C@H](C(=O)N[C@H]2Cc3cccc(C(=O)O)c3OB2O)c2ccc(S(N)(=O)=O)c(OC)c2)C(=O)C1=O` [Example 168, (R)-3-((S)-2-(4-ethyl-2,3-dioxopiperazine-1-carboxamido)-2-(3-methoxy-4-sulfamoylphenyl)acetamido)-2-hydroxy-3,4-dihydro-2H-benzo[e][1,2]oxaborinine-8-carboxylic acid], the MIC is greater than 128 µg/mL in [1]; greater than 128 µg/mL in assay [2]; 0.5 to 1 µg/mL in assay [3]; 8 to 16 µg/mL in [4]; 8 to 16 µg/mL in assay [5]; greater than 128 µg/mL in assay [6]. Also, the MIC in [7] and in assay [8] (setting [10]) was greater than 128 µg/mL each time. Besides, in assay [9], the EC50 lay in the range of 30 to 500 µM.

As for `NS(=O)(=O)c1ccc([C@H](NC(=O)N2CCN(CCBr)C(=O)C2=O)C(=O)N[C@H]2Cc3cccc(C(=O)O)c3OB2O)cc1O` [Example 171, (R)-3-((S)-2-(4-(2-bromoethyl)-2,3-dioxopiperazine-1-carboxamido)-2-(3-hydroxy-4-sulfamoylphenyl)acetamido)-2-hydroxy-3,4-dihydro-2H-benzo[e][1,2]oxaborinine-8-carboxylic acid], the MIC was 32 to 64 µg/mL in assay [1]; greater than 128 µg/mL in assay [2]; 0.5 to 1 µg/mL in assay [3]; 8 to 16 µg/mL in assay [4]; 0.5 to 1 µg/mL in [5]; 32 to 64 µg/mL in assay [6]. Moreover, the MIC in [7] was greater than 128 µg/mL; in assay [8] (ATCC25922, read-out: MIC E. coli 25922), 32 to 64 µg/mL. Further, the EC50 in [9] lay in the range of 30 to 500 µM.

As to `CCN1CCN(C(=O)N[C@H](C(=O)N[C@H]2Cc3cccc(C(=O)O)c3OB2O)c2ncc(O)cc2F)C(=O)C1=O` [Example 176, (R)-3-((S)-2-(4-ethyl-2,3-dioxopiperazine-1-carboxamido)-2-(3-fluoro-5-hydroxypyridin-2-yl)acetamido)-2-hydroxy-3,4-dihydro-2H-benzo[e][1,2]oxaborinine-8-carboxylic acid], the MIC was 32 to 64 µg/mL in assay [1]; 32 to 64 µg/mL in [2]; less than 0.25 µg/mL in [3]; 2 to 4 µg/mL in assay [4]; 2 to 4 µg/mL in assay [5]; 32 to 64 µg/mL in assay [6]. Further, the MIC in assay [7] is greater than 128 µg/mL; in assay [8] (setting [10]), 32 to 64 µg/mL. The EC50 in assay [9] (setting [11]) is less than 30 µM.

Turning to `CCN1CCN(C(=O)NC(C(=O)N[C@H]2Cc3cccc(C(=O)O)c3OB2O)c2ncc(O)cc2C)C(=O)C1=O` (stereo partly drawn) [Example 178, (3R)-3-(2-(4-ethyl-2,3-dioxopiperazine-1-carboxamido)-2-(5-hydroxy-3-methylpyridin-2-yl)acetamido)-2-hydroxy-3,4-dihydro-2H-benzo[e][1,2]oxaborinine-8-carboxylic acid], the MIC in assay [1] is greater than 128 µg/mL; in assay [2] it was greater than 128 µg/mL; in assay [3], 8 to 16 µg/mL; in [4], 32 to 64 µg/mL; in assay [5] it was 32 to 64 µg/mL; in assay [6], greater than 128 µg/mL. For the same compound, the MIC in assay [7] and in assay [8] (setting [10]) was greater than 128 µg/mL throughout. In assay [9], the EC50 lay in the range of 30 to 500 µM.
